Values quoted from earlier work, collected in PubChem BioAssay AID1259409 (Chemical Carcinogenesis Research Information System (CCRIS), 2018).

Test system: rodent chemically induced tumor inhibition, incidence and multiplicity
Test: CCRIS tumor inhibitor studies

N[C@@H](CS)C(=O)O
tumour outcome (control, treated, inhibition, significance) (Carcinogen: 7,12-DIMETHYLBENZ[A]ANTHRACENE, 57-97-6, Dose [Inhibitor]: 0.03 NMOL/G DIET DAILY FOR 17 WK STARTING 1 WK PRIOR TO CARCINOGEN TREATMENT AND CONTINUING THROUGH THE END OF THE STUDY, Route [Inhibitor]: ORAL, Species: RAT, Strain/Sex: SPRAGUE-DAWLEY/FEMALE, Target Tissue: Type of Lesion: MAMMARY GLAND: TUMOR, Dose [Carcinogen]: 12 MG IN 1 ML OLIVE OIL ONCE, Promoter: NONE USED): 59%, 61%, -3%, not significant
tumour outcome (control, treated, inhibition, significance) (Carcinogen: TRANS-5-AMINO-3-[2-(5-NITRO-2-FURYL)VINYL]-1,2,4-OXADIAZOLE;SQL8506, 28754-68-9, Carcinogen: TRANS-5-AMINO-3-[2-(5-NITRO-2-FURYL)VINYL]-1,2,4-OXADIAZOLE;SQL8506, 28754-68-9, Dose [Inhibitor]: 100 MG/KG 16 HR BEFORE THE 1ST CARCINOGEN DOSE FOLLOWED BY ADDITIONAL DOSES IMMEDIATELY BEFORE EACH DOSE OF CARCINOGEN (, Route [Inhibitor]: INTRAPERITONEAL, Species: MOUSE, Strain/Sex: CD-1/FEMALE, Target Tissue: Type of Lesion: HEMATOPOIETIC SYSTEM: MYELOID LEUKEMIA, Dose [Carcinogen]: 1 G/KG 2/D FOR 5 D EVERY 4 WK, Promoter: NONE USED): 7/137 (5%), 1/32 (3%), 40%, not calculated
tumour outcome (control, treated, inhibition, significance) (Carcinogen: TRANS-5-AMINO-3-[2-(5-NITRO-2-FURYL)VINYL]-1,2,4-OXADIAZOLE;SQL8506, 28754-68-9, Carcinogen: TRANS-5-AMINO-3-[2-(5-NITRO-2-FURYL)VINYL]-1,2,4-OXADIAZOLE;SQL8506, 28754-68-9, Dose [Inhibitor]: 100 MG/KG 16 HR BEFORE THE 1ST CARCINOGEN DOSE FOLLOWED BY ADDITIONAL DOSES IMMEDIATELY BEFORE EACH DOSE OF CARCINOGEN (, Route [Inhibitor]: INTRAPERITONEAL, Species: MOUSE, Strain/Sex: CD-1/FEMALE, Target Tissue: Type of Lesion: LYMPHOID TISSUE: NONTHYMIC LYMPHOMA, Dose [Carcinogen]: 1 G/KG 2/D FOR 5 D EVERY 4 WK, Promoter: NONE USED): 8/137 (6%), 1/32 (3%), 50%, not calculated
tumour outcome (control, treated, inhibition, significance) (Carcinogen: TRANS-5-AMINO-3-[2-(5-NITRO-2-FURYL)VINYL]-1,2,4-OXADIAZOLE;SQL8506, 28754-68-9, Carcinogen: TRANS-5-AMINO-3-[2-(5-NITRO-2-FURYL)VINYL]-1,2,4-OXADIAZOLE;SQL8506, 28754-68-9, Dose [Inhibitor]: 100 MG/KG 16 HR BEFORE THE 1ST CARCINOGEN DOSE FOLLOWED BY ADDITIONAL DOSES IMMEDIATELY BEFORE EACH DOSE OF CARCINOGEN (, Route [Inhibitor]: INTRAPERITONEAL, Species: MOUSE, Strain/Sex: CD-1/FEMALE, Target Tissue: Type of Lesion: LYMPHOID TISSUE: THYMIC LYMPHOMA, Dose [Carcinogen]: 1 G/KG 2/D FOR 5 D EVERY 4 WK, Promoter: NONE USED): 22/137 (16%), 5/32 (16%), 0%, not calculated
tumour outcome (control, treated, inhibition, significance) (Carcinogen: TRANS-5-AMINO-3-[2-(5-NITRO-2-FURYL)VINYL]-1,2,4-OXADIAZOLE;SQL8506, 28754-68-9, Carcinogen: TRANS-5-AMINO-3-[2-(5-NITRO-2-FURYL)VINYL]-1,2,4-OXADIAZOLE;SQL8506, 28754-68-9, Dose [Inhibitor]: 100 MG/KG 16 HR BEFORE THE 1ST CARCINOGEN DOSE FOLLOWED BY ADDITIONAL DOSES IMMEDIATELY BEFORE EACH DOSE OF CARCINOGEN (, Route [Inhibitor]: INTRAPERITONEAL, Species: MOUSE, Strain/Sex: CD-1/FEMALE, Target Tissue: Type of Lesion: STOMACH: SQUAMOUS CARCINOMA, Dose [Carcinogen]: 1 G/KG 2/D FOR 5 D EVERY 4 WK, Promoter: NONE USED): 60/137 (44%), 9/32 (28%), 36%, not calculated

CC1=CCCC(C)(C)[C@H]1/C=C/C(C)=C/C=C/C(C)=C/C=C/C=C(C)/C=C/C=C(C)/C=C/C1=C(C)CCCC1(C)C
tumour outcome (control, treated, inhibition, significance) (Carcinogen: 4-NITROQUINOLINE-1-OXIDE, 56-57-5, Dose [Inhibitor]: 0, 0.05% IN DRINKING WATER AD LIBITUM (STUDY DURATION: 30 WK), Route [Inhibitor]: ORAL, Species: MOUSE, Strain/Sex: DDY/MALE, Target Tissue: Type of Lesion: LUNG: TUMOR, Dose [Carcinogen]: 10 MG/KG BW IN OLIVE OIL/CHOLESTEROL (20:1) ONCE, Promoter: GLYCEROL, 56-81-5): 94%, 73%, 22%, not significant
tumour outcome (control, treated, inhibition, significance) (Carcinogen: 4-NITROQUINOLINE-1-OXIDE, 56-57-5, Dose [Inhibitor]: 0, 0.05% IN DRINKING WATER BEGINNING 5 WK POST CARCINOGEN TREATMENT AND CONTINUING FOR 25 WK (STUDY DURATION: 30 WK), Route [Inhibitor]: ORAL, Species: MOUSE, Strain/Sex: DDY/MALE, Target Tissue: Type of Lesion: LUNG: TUMORS, Dose [Carcinogen]: 10 MG/KG BW IN OLIVE OIL AND CHOLESTEROL (20:1) ONCE, Promoter: NONE USED): 94%, 73%, 22%, not calculated
tumour outcome (control, treated, inhibition, significance) (Carcinogen: 7,12-DIMETHYLBENZ[A]ANTHRACENE, 57-97-6, Dose [Inhibitor]: 0, 0.05% IN DRINKING WATER AD LIBITUM FOR 30 WK BEGINNING 1 WK POST CARCINOGEN DOSE (STUDY DURATION: 31 WK), Route [Inhibitor]: ORAL, Species: MOUSE, Strain/Sex: ICR/FEMALE, Target Tissue: Type of Lesion: SKIN: TUMOR, Dose [Carcinogen]: 100 UG ONCE, Promoter: 12-O-TETRADECANOYLPHORBOL-13-ACETATE, 16561-29-8): 13/16 (81%), 7/16 (44%), 46%, not significant
tumour outcome (control, treated, inhibition, significance) (Carcinogen: 7,12-DIMETHYLBENZ[A]ANTHRACENE, 57-97-6, Dose [Inhibitor]: 0, 200 NMOL IN 200 µL ACETONE 2/WK BEGINNING 1 WK POST CARCINOGEN DOSE APPLIED SIMULTANEOUSLY WITH PROMOTER FOR 20 WK (S, Route [Inhibitor]: DERMAL, Species: MOUSE, Strain/Sex: ICR/?, Target Tissue: Type of Lesion: SKIN: PAPILLOMA, Dose [Carcinogen]: 100 UG ONCE, Promoter: 12-O-TETRADECANOYLPHORBOL-13-ACETATE, 16561-29-8): 69%, 25%, 64%, not calculated
tumour outcome (control, treated, inhibition, significance) (Carcinogen: 7,12-DIMETHYLBENZ[A]ANTHRACENE, 57-97-6, Dose [Inhibitor]: 0, 200 NMOL IN 200 µL ACETONE 2/WK FOR 40 WK APPLIED SIMULTANEOUSLY WITH PROMOTER BEGINNING 1 WK POST CARCINOGEN DOSE (S, Route [Inhibitor]: DERMAL, Species: MOUSE, Strain/Sex: ICR/FEMALE, Target Tissue: Type of Lesion: SKIN: TUMOR, Dose [Carcinogen]: 100 UG ONCE, Promoter: 12-O-TETRADECANOYLPHORBOL-13-ACETATE, 16561-29-8): 10/15 (67%), 5/15 (33%), 51%, p<0.01
tumour outcome (control, treated, inhibition, significance) (Carcinogen: 7,12-DIMETHYLBENZ[A]ANTHRACENE, 57-97-6, Dose [Inhibitor]: 0, 400 NMOL IN 200 µL ACETONE 2/WK BEGINNING 1 WK POST CARCINOGEN DOSE APPLIED SIMULTANEOUSLY WITH PROMOTER FOR 20 WK (S, Route [Inhibitor]: DERMAL, Species: MOUSE, Strain/Sex: ICR/?, Target Tissue: Type of Lesion: SKIN: PAPILLOMA, Dose [Carcinogen]: 100 UG ONCE, Promoter: 12-O-TETRADECANOYLPHORBOL-13-ACETATE, 16561-29-8): 69%, 13%, 81%, not calculated
tumour outcome (control, treated, inhibition, significance) (Carcinogen: NONE USED, Dose [Inhibitor]: 0, 0.005% IN DRINKING WATER AD LIBITUM FOR 40 WK (STUDY DURATION: 40 WK), Route [Inhibitor]: ORAL, Species: MOUSE, Strain/Sex: C3H/HE/MALE, Target Tissue: Type of Lesion: LIVER: TUMOR, Promoter: NONE USED): 100%, 100%, 0%, not significant
tumour outcome (control, treated, inhibition, significance) (Carcinogen: NONE USED, Dose [Inhibitor]: 0, 0.005% IN DRINKING WATER FOR 40 WK (STUDY DURATION: 40 WK), Route [Inhibitor]: ORAL, Species: MOUSE, Strain/Sex: C3H/HE/MALE, Target Tissue: Type of Lesion: LIVER: TUMORS, Promoter: NONE USED): 16/16 (100%), 15/15 (100%), 0%, not significant
tumour outcome (control, treated, inhibition, significance) (Carcinogen: NONE USED, Dose [Inhibitor]: 0, 0.05% IN DRINKING WATER AD LIBITUM FOR 40 WK (STUDY DURATION: 40 WK), Route [Inhibitor]: ORAL, Species: MOUSE, Strain/Sex: C3H/HE/MALE, Target Tissue: Type of Lesion: LIVER: TUMOR, Promoter: NONE USED): 100%, 94%, 6%, not significant
tumour outcome (control, treated, inhibition, significance) (Carcinogen: NONE USED, Dose [Inhibitor]: 0, 0.05% IN DRINKING WATER FOR 40 WK (STUDY DURATION: 40 WK), Route [Inhibitor]: ORAL, Species: MOUSE, Strain/Sex: C3H/HE/MALE, Target Tissue: Type of Lesion: LIVER: TUMORS, Promoter: NONE USED): 16/16 (100%), 16/17 (94%), 6%, not calculated

Cc1csc(NC(=O)C(C(=O)OC(C)C)=C2SCS2)n1
tumour outcome (control, treated, inhibition, significance) (Carcinogen: BENZO[A]PYRENE [50-32-8], Dose [Inhibitor]: 0, 150 MG/KG BW IN TRIOCTANOIN 1 D AND 2 HR PRIOR TO CARCINOGEN DOSE (STUDY DURATION: 21 WK), Route [Inhibitor]: GAVAGE, Species: MOUSE, Strain/Sex: CD-1/FEMALE, Target Tissue: Type of Lesion: SKIN: PAPILLOMA, Dose [Carcinogen]: 0.3 UMOL IN 0.2 ML ACETONE ONCE, Promoter: 12-O-TETRADECANOYLPHORBOL-13-ACETATE [16561-29-8]): 92%, 73%, 21%, not calculated
tumour outcome (control, treated, inhibition, significance) (Carcinogen: BENZO[A]PYRENE [50-32-8], Dose [Inhibitor]: 150 MG/KG IN 10 µL TRIOCTANOIN ONCE 1 D AND 2 HR PRIOR TO CARCINOGEN DOSE (STUDY DURATION: 21 WK), Route [Inhibitor]: GAVAGE, Species: MOUSE, Strain/Sex: CD-1/FEMALE, Target Tissue: Type of Lesion: SKIN: PAPILLOMA, Dose [Carcinogen]: 0.3 UMOL IN 0.2 ML ACETONE ONCE (STUDY DURATION: 21 WK), Promoter: 12-O-TETRADECANOYLPHORBOL-13-ACETATE [16561-29-8]): 92%, 75%, 18%, not calculated
tumour outcome (control, treated, inhibition, significance) (Carcinogen: VINYL CARBAMATE, 15805-73-9, Dose [Inhibitor]: 0, 150 MG/KG BW ONCE AT 2 HR AND 1 D PRIOR TO CARCINOGEN DOSE (STUDY DURATION: 22 WK), Route [Inhibitor]: GAVAGE, Species: MOUSE, Strain/Sex: CD-1/FEMALE, Target Tissue: Type of Lesion: SKIN: PAPILLOMA, Dose [Carcinogen]: 11.5 UMOL IN 0.2 ML ACETONE ONCE, Promoter: 12-O-TETRADECANOYLPHORBOL-13-ACETATE, 16561-29-8): 58%, 37%, 36%, not calculated
